Test results: PMC9226124, “Macrocycle-stabilization of its interaction with 14-3-3 increases plasma membrane localization and activity of CFTR” (Nature Communications, 2022)
Where “and” joins values, the source holds several entries; their conditions need not be identical. Equal values may be shown once.

Assays:
[1] = molecular target: T1, FITC-labeled CFTRpS753pS768 peptide (no 14-3-3) (Homo sapiens, UniProt P13569); assay: Dose-response FP control assay in the absence of 14-3-3; format: binding; details: for FP signal: No 14-3-3; for Polarization in the absence of 14-3-3, background subtracted: replicates
T1 construct: made in house; host or cells: synthetic peptide
In short: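 Control run without 14-3-3: FITC-CFTR pS753/pS768 peptide (100 nM or 10 nM) with compound titrated in twofold dilutions in 10 mM HEPES pH 7.4, 150 mM NaCl, 0.1% Tween20, 1 mg/mL BSA. Fluorescence polarization read at ex 485/em 535 nm, background subtracted, n = 3. Curves fitted by four-parameter log(agonist) vs. response.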

[2] = molecular target: T2, 14-3-3β/CFTRpS753pS768 complex (Homo sapiens, UniProt P13569+P31946); assay: FP assay, 14-3-3β titration at constant compound concentration (apparent KD); format: binding; details: for Polarization: FC 100 uM, peptide 100 nM; for Polarization / FP signal, 14-3-3β titration / FP signal: replicates; for FP signal, 14-3-3β titration / FP signal: compound 100 μM; for Fluorescence polarization signal, 14-3-3β titration: FC-A (100 μM)
T2 construct: His6 (cleaved yes); made in house; peptide synthetic
T2 sequence (P31946 whole entry): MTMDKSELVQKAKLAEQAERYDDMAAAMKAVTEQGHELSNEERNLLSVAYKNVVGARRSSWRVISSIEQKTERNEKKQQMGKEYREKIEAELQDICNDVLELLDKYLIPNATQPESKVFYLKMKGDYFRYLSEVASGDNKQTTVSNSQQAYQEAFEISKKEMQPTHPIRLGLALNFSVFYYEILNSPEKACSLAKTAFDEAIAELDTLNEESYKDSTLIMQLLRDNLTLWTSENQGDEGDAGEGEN
T2 sequence (P13569 747-774 limits assumed): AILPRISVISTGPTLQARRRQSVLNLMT

C=CC(C)(C)OC[C@H]1O[C@H](O[C@@H]2C3=C([C@H](C)COC(C)=O)C[C@H](O)[C@]3(C)/C=C3/[C@@H](COC)CC[C@H]3[C@@H](C)[C@H]2O)[C@H](O)[C@@H](OC(C)=O)[C@@H]1O [FC-A, fusicoccin A, reference compound]
FP signal ([1]; compound 476.8 pM): 1
FP signal ([1]; compound 953.7 pM): 5
FP signal ([1]; compound 1.90735e-9 M): 0
FP signal ([1]; compound 3.8147e-9 M): 3
FP signal ([1]; compound 7.6294e-9 M): 3
FP signal ([1]; compound 1.52588e-8 M): 2
FP signal ([1]; compound 3.05176e-8 M): 2
FP signal ([1]; compound 6.10352e-8 M): 1
FP signal ([1]; compound 1.2207e-7 M): 1
FP signal ([1]; compound 2.44141e-7 M): 2
FP signal ([1]; compound 4.88281e-7 M): 4
FP signal ([1]; compound 9.76563e-7 M): 5
FP signal ([1]; compound 1.95313e-6 M): 6
FP signal ([1]; compound 3.90625e-6 M): 15
FP signal ([1]; compound 7.8125e-6 M): 23
FP signal ([1]; compound 1.5625e-5 M): 37
FP signal ([1]; compound 3.125e-5 M): 53
FP signal ([1]; compound 6.25e-5 M): 70
FP signal ([1]; compound 0.000125 M): 91
FP signal ([1]; compound 0.00025 M): 104
FP signal ([1]; compound 0.0005 M): 116
FP signal ([1]; compound 0.001 M): 133
Polarization in the absence of 14-3-3, background subtracted ([1]; compound 7.8125e-7 M): 1.367 and 0.6667 and -0.1333
Polarization in the absence of 14-3-3, background subtracted ([1]; compound 1.5625e-6 M): 0.1667 and 0.6667 and 0.3667
Polarization in the absence of 14-3-3, background subtracted ([1]; compound 3.125e-6 M): 0.06667 and -0.03333 and 0.6667
Polarization in the absence of 14-3-3, background subtracted ([1]; compound 6.25e-6 M): 0.06667 and -0.2333 and -0.3333
Polarization in the absence of 14-3-3, background subtracted ([1]; compound 1.25e-5 M): 0.5667 and 0.6667 (2×)
Polarization in the absence of 14-3-3, background subtracted ([1]; compound 2.5e-5 M): -0.03333 and 0.6667 and 0.8667
Polarization in the absence of 14-3-3, background subtracted ([1]; compound 5e-5 M): 1.667 and 1.067 and 1.267
Polarization in the absence of 14-3-3, background subtracted ([1]; compound 0.0001 M): 1.667 and 1.167 and 2.267
Polarization ([2]; 14-3-3β 119.2 pM, listed as FC): 20 and 18
FP signal, 14-3-3β titration ([2]; 14-3-3β 119.2 pM): 3.333 and 5.333 (2×)
FP signal ([2]; 14-3-3β 139.2 pM): 5 (2×) and 3
Polarization ([2]; 14-3-3β 238.4 pM, listed as FC): 22 and 21
FP signal, 14-3-3β titration ([2]; 14-3-3β 238.4 pM): 3.333 and 4.333 and 2.333
FP signal ([2]; 14-3-3β 278.5 pM): 6 and 5 and 4
Polarization ([2]; 14-3-3β 476.8 pM, listed as FC): 21 and 19 and 18
FP signal, 14-3-3β titration ([2]; 14-3-3β 476.8 pM): 4.333 (2×) and 2.333
FP signal ([2]; 14-3-3β 556.9 pM): 6 (2×) and 5
Polarization ([2]; 14-3-3β 953.7 pM, listed as FC): 21 and 20 and 18
FP signal, 14-3-3β titration ([2]; 14-3-3β 953.7 pM): 4.333 (2×) and 6.333
FP signal ([2]; 14-3-3β 1.11389e-9 M): 5 and 7 and 8
Polarization ([2]; 14-3-3β 1.90735e-9 M, listed as FC): 18 and 20 and 19
FP signal, 14-3-3β titration ([2]; 14-3-3β 1.90735e-9 M): 0.3333 and 5.333 and 3.333
FP signal ([2]; 14-3-3β 2.22778e-9 M): 6 and 8 and 5
Polarization ([2]; 14-3-3β 3.8147e-9 M, listed as FC): 21 and 19
FP signal, 14-3-3β titration ([2]; 14-3-3β 3.8147e-9 M): 0.3333 and 3.333 and 2.333
FP signal ([2]; 14-3-3β 4.45557e-9 M): 4 and 7 and 9
Polarization ([2]; 14-3-3β 7.62939e-9 M, listed as FC): 20 and 22 and 19
FP signal, 14-3-3β titration ([2]; 14-3-3β 7.62939e-9 M): 6.333 and 3.333 and 1.333
FP signal ([2]; 14-3-3β 8.91113e-9 M): 4 and 8 and 6
Polarization ([2]; 14-3-3β 1.52588e-8 M, listed as FC): 22 and 19
FP signal, 14-3-3β titration ([2]; 14-3-3β 1.52588e-8 M): 1.333 and 7.333 and 4.333
FP signal ([2]; 14-3-3β 1.78223e-8 M): 6 (2×) and 7
Polarization ([2]; 14-3-3β 3.05176e-8 M, listed as FC): 23 and 20 and 22
FP signal, 14-3-3β titration ([2]; 14-3-3β 3.05176e-8 M): 2.333 and 4.333 and 5.333
FP signal ([2]; 14-3-3β 3.56445e-8 M): 9 (2×) and 7
Polarization ([2]; 14-3-3β 6.10352e-8 M, listed as FC): 24 and 25
FP signal, 14-3-3β titration ([2]; 14-3-3β 6.10352e-8 M): 7.333 and 6.333 (2×)
FP signal ([2]; 14-3-3β 7.12891e-8 M): 10 (2×) and 11
Polarization ([2]; 14-3-3β 1.2207e-7 M, listed as FC): 28 and 30
FP signal, 14-3-3β titration ([2]; 14-3-3β 1.2207e-7 M): 5.333 and 9.333 and 6.333
FP signal ([2]; 14-3-3β 1.42578e-7 M): 15 and 16 and 14
Polarization ([2]; 14-3-3β 2.44141e-7 M): 35
FP signal, 14-3-3β titration ([2]; 14-3-3β 2.44141e-7 M): 9.333 and 10.3333 and 5.333
FP signal ([2]; 14-3-3β 2.85156e-7 M): 24 and 22 (2×)
Polarization ([2]; 14-3-3β 4.88281e-7 M, listed as FC): 48 and 46
FP signal, 14-3-3β titration ([2]; 14-3-3β 4.88281e-7 M): 9.333 (2×) and 12.3333
FP signal ([2]; 14-3-3β 5.70313e-7 M): 40 (2×) and 33
Polarization ([2]; 14-3-3β 9.76563e-7 M, listed as FC): 68 and 64 and 69
FP signal, 14-3-3β titration ([2]; 14-3-3β 9.76563e-7 M): 18.3333 and 11.3333 and 16.3333
FP signal ([2]; 14-3-3β 1.14063e-6 M): 66 and 63 and 57
Polarization ([2]; 14-3-3β 1.95313e-6 M, listed as FC): 98 and 96 and 97
FP signal, 14-3-3β titration ([2]; 14-3-3β 1.95313e-6 M): 32.3333 and 30.3333 and 31.3333
FP signal ([2]; 14-3-3β 2.28125e-6 M): 97 and 94 and 86
Polarization ([2]; 14-3-3β 3.90625e-6 M, listed as FC): 135 and 137
FP signal, 14-3-3β titration ([2]; 14-3-3β 3.90625e-6 M): 47.3333 (2×) and 44.3333
FP signal ([2]; 14-3-3β 4.5625e-6 M): 137 and 131 and 124
Polarization ([2]; 14-3-3β 7.8125e-6 M, listed as FC): 175 and 176
FP signal, 14-3-3β titration ([2]; 14-3-3β 7.8125e-6 M): 71.3333 and 69.3333 and 64.3333
FP signal ([2]; 14-3-3β 9.125e-6 M): 171 and 164 and 159
Polarization ([2]; 14-3-3β 1.5625e-5 M, listed as FC): 212 and 209
FP signal, 14-3-3β titration ([2]; 14-3-3β 1.5625e-5 M): 98.3333 and 94.3333 (2×)
FP signal ([2]; 14-3-3β 1.825e-5 M): 202 and 191 and 192
Polarization ([2]; 14-3-3β 3.125e-5 M, listed as FC): 234 and 235 and 231
FP signal, 14-3-3β titration ([2]; 14-3-3β 3.125e-5 M): 123.333 and 117.333 and 124.333
FP signal ([2]; 14-3-3β 3.65e-5 M): 216 and 213 and 212
Polarization ([2]; 14-3-3β 6.25e-5 M, listed as FC): 246 and 249 and 248
FP signal, 14-3-3β titration ([2]; 14-3-3β 6.25e-5 M): 146.333 and 138.333 and 142.333
FP signal ([2]; 14-3-3β 7.3e-5 M): 227 and 226 and 224
Polarization ([2]; 14-3-3β 0.000125 M, listed as FC): 256 and 254
FP signal, 14-3-3β titration ([2]; 14-3-3β 0.000125 M): 152.333 and 153.333 and 150.333
FP signal ([2]; 14-3-3β 0.000146 M): 232 and 230 and 229
Polarization ([2]; 14-3-3β 0.00025 M, listed as FC): 260 and 261 and 258
FP signal, 14-3-3β titration ([2]; 14-3-3β 0.00025 M): 165.333 and 161.333 and 167.333
FP signal, 14-3-3β titration ([2]; 14-3-3β 0.0005 M): 177.333 and 174.333 and 175.333
Fluorescence polarization signal, 14-3-3β titration ([2]; 14-3-3β concentration 119.2 pM): 3.333 and 5.333
Fluorescence polarization signal, 14-3-3β titration ([2]; 14-3-3β concentration 238.4 pM): 3.333 and 4.333 and 2.333
Fluorescence polarization signal, 14-3-3β titration ([2]; 14-3-3β concentration 476.8 pM): 4.333 and 2.333
Fluorescence polarization signal, 14-3-3β titration ([2]; 14-3-3β concentration 953.7 pM): 4.333 and 6.333
Fluorescence polarization signal, 14-3-3β titration ([2]; 14-3-3β concentration 6.10352e-8 M): 7.333 and 6.333
Fluorescence polarization signal, 14-3-3β titration ([2]; 14-3-3β concentration 1.2207e-7 M): 5.333 and 9.333 and 6.333
Fluorescence polarization signal, 14-3-3β titration ([2]; 14-3-3β concentration 2.44141e-7 M): 9.333 and 10.3333 and 5.333
Fluorescence polarization signal, 14-3-3β titration ([2]; 14-3-3β concentration 4.88281e-7 M): 9.333 and 12.3333
Fluorescence polarization signal, 14-3-3β titration ([2]; 14-3-3β concentration 9.76563e-7 M): 18.3333 and 11.3333 and 16.3333
Fluorescence polarization signal, 14-3-3β titration ([2]; 14-3-3β concentration 1.95313e-6 M): 32.3333 and 30.3333 and 31.3333
Fluorescence polarization signal, 14-3-3β titration ([2]; 14-3-3β concentration 3.90625e-6 M): 47.3333 and 44.3333
Fluorescence polarization signal, 14-3-3β titration ([2]; 14-3-3β concentration 7.8125e-6 M): 71.3333 and 69.3333 and 64.3333
Fluorescence polarization signal, 14-3-3β titration ([2]; 14-3-3β concentration 1.5625e-5 M): 98.3333 and 94.3333
Fluorescence polarization signal, 14-3-3β titration ([2]; 14-3-3β concentration 3.125e-5 M): 123.333 and 117.333 and 124.333
Fluorescence polarization signal, 14-3-3β titration ([2]; 14-3-3β concentration 6.25e-5 M): 146.333 and 138.333 and 142.333
Fluorescence polarization signal, 14-3-3β titration ([2]; 14-3-3β concentration 0.000125 M): 152.333 and 153.333 and 150.333
Fluorescence polarization signal, 14-3-3β titration ([2]; 14-3-3β concentration 0.00025 M): 165.333 and 161.333 and 167.333
Fluorescence polarization signal, 14-3-3β titration ([2]; 14-3-3β concentration 0.0005 M): 177.333 and 174.333 and 175.333
